Results reported in BindingDB's records for doi:10.1021/jm051059p (Merck Frosst Centre For Therapeutic Research, 2006).

Biological target: T1, Cathepsin K (Oryctolagus cuniculus, UniProt P43236)
T1 sequence (P43236 whole entry): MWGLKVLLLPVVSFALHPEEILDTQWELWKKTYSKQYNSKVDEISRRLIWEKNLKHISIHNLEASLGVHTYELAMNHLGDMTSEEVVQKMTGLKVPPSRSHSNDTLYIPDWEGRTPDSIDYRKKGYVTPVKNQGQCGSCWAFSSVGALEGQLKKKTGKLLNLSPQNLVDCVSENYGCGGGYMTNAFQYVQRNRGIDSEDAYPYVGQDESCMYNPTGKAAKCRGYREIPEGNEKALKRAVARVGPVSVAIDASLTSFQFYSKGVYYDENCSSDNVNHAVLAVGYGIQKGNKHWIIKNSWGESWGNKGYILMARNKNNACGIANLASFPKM
Assay: Enzyme Inhibition Assay
Experimental: Prior to the addition of substrate, different concentrations of the inhibitor ranging from 100 uM to 0.2 nM were preincubated for 15 min with enzyme to allow the establishment of the enzyme-inhibitor complex. The proteolytic cleavage of N-acyl aminocoumarins by cathepsins was conducted in 96-well plate format and the plate read using a Spectramax (Molecular Devices) plate reader. The excitation wavelength was 355 nm and the emission wavelength was 460 nm for peptidyl-AMC substrates. The percent inhibition of the reaction was calculated from a control reaction containing only vehicle. IC50 curves were generated by fitting percent inhibition values to a four parameter logistic model (SOFTMAX PRO, Molecular Devices).

SMILES | IC50 [nM] | IC50 (pH 5.5, 22 °C) [nM]
N#CCNC(=O)[C@@H]1CC(F)(F)CC[C@H]1c1ccccc1-c1ccc(F)cc1 (racemic) [racemic mixture] | 19 | –
CSc1ccc(/C=C\[C@@H]2CCCC[C@H]2C(=O)NCC#N)cc1 (racemic) [racemic mixture] | – | 0.5
N#CCNC(=O)[C@@H]1CCCC[C@H]1CSc1ccc(N)cc1 (racemic) [racemic mixture] | – | 100
CSc1ccc(CC[C@@H]2CCCC[C@H]2C(=O)NCC#N)cc1 [racemic mixture] | – | 1.7
Cc1ccc(SC[C@@H]2CCCC[C@H]2C(=O)NCC#N)cc1 [racemic mixture] | – | 100
